Measurements taken from ChEMBL document CHEMBL4725390, “Asymmetrically Substituted Quadruplex-Binding Naphthalene Diimide Showing Potent Activity in Pancreatic Cancer Models” (ACS Med Chem Lett, 2020).
Active and inactive are the calls of the source. The rule behind the calls is not given here.

Legend:
[1] = Downregulation of APC2 mRNA expression in human MIAPaCa2 cells at 40 nM after 6 hrs by RNA sequencing analysis relative to control; format: functional, MIA PaCa-2
[2] = Toxicity in mouse xenografted with human MIAPaCa2 cells assessed as effect on neuronal clinical signs at 1 mg/kg, iv administered twice per week for 28 days; format: organism-based; settings: in vivo, 672 h, time 28 day
[3] = Downregulation of MAPK11 mRNA expression in human MIAPaCa2 cells at 40 nM after 24 hrs by RNA sequencing analysis relative to control; format: functional, MIA PaCa-2
MIA PaCa-2 [4] = test: Downregulation of Wnt signaling pathway related gene expression in human MIAPaCa2 cells at 40 nM after 24 hrs by RNA sequencing analysis; format: functional, cell-based
[5] = Volume of distribution at steady state in mouse xenografted with human MIAPaCa2 cells at 0.96 mg/kg, iv administered as single dose; format: ADME, organism-based; settings: in vivo, read-out: Vdss
CAPAN-1 = test: Potency index, ratio of 2,7-bis(3-morpholinopropyl)-4-((2-(pyrrolidin-1-yl)ethyl)amino)benzo[lmn][3,8]phenanthroline-1,3,6,8(2H,7H)-tetraone IC50 to test compound IC50 for human Capan1 cells measured after 96 hrs by SRB assay; format: functional
MIA PaCa-2 [6] = test: Antitumor activity against human MIAPaCa2 cells xenografted in mouse assessed as change in tumor volume at 1 mg/kg, iv administered twice per week for 28 days and measured at day 28 by Caliper method relative to control; format: functional; settings: time 28 day
Quadruplex DNA = test: Binding affinity to G4 quadruplex DNA in human PANC1 cells assessed as BG4 foci formation at 800 nM after 6 hrs by immunofluorescence based confocal microscopic analysis; format: cell-based; settings: PANC-1
MIA PaCa-2 [7] = test: Antiproliferative activity against human MIAPaCa2 cells assessed as growth inhibition after 96 hrs by SRB assay; format: functional
MIA PaCa-2 [8] = test: Downregulation of Rap1 signaling pathway related gene expression in human MIAPaCa2 cells at 40 nM after 6 hrs by RNA sequencing analysis; format: functional, cell-based
BXPC-3 = test: Antiproliferative activity against human BxPC3 cells assessed as growth inhibition after 96 hrs by SRB assay; format: functional
[9] = Downregulation of WNT5B mRNA expression in human MIAPaCa2 cells at 40 nM after 6 hrs by RNA sequencing analysis relative to control; format: functional, MIA PaCa-2
MIA PaCa-2 [10] = test: Antitumor activity against human MIAPaCa2 cells xenografted in mouse assessed as change in tumor volume at 1 mg/kg, iv administered twice per week for 28 days and measured at day 53 by Caliper method relative to control; format: functional; settings: time 28 day
[11] = Downregulation of DVL1 mRNA expression in human MIAPaCa2 cells at 40 nM after 6 hrs by RNA sequencing analysis relative to control; format: functional, MIA PaCa-2
MIA PaCa-2 [12] = test: Antitumor activity against human MIAPaCa2 cells xenografted in mouse assessed as change in tumor volume at 1 mg/kg, iv administered once per week for 28 days and measured at day 28 by Caliper method relative to control; format: functional; settings: time 28 day
[13] = Downregulation of APC2 mRNA expression in human MIAPaCa2 cells at 40 nM after 24 hrs by RNA sequencing analysis relative to control; format: functional, MIA PaCa-2
[14] = Downregulation of DVL1 mRNA expression in human MIAPaCa2 cells at 40 nM after 24 hrs by RNA sequencing analysis relative to control; format: functional, MIA PaCa-2
[15] = Half life in mouse xenografted with human MIAPaCa2 cells at 0.96 mg/kg, iv administered as single dose; format: ADME, organism-based; settings: in vivo
[16] = Downregulation of GLI1 mRNA expression in human MIAPaCa2 cells at 40 nM after 24 hrs by RNA sequencing analysis relative to control; format: functional, MIA PaCa-2
Mus musculus [17] = test: Up regulation of cleaved PARP protein expression in mouse xenografted with human MIAPaCa2 cells at 1 mg/kg, iv administered once per week for 28 days measured on day 28 by Western blot analysis; format: functional, organism-based; settings: time 28.0 day
Mus musculus [18] = test: Effect on hTERT expression in mouse xenografted with human MIAPaCa2 cells at 1 mg/kg, iv administered twice per week for 28 days and measured on day 28 by Western blot analysis; format: functional, organism-based; settings: time 28.0 day
[19] = Half life in rat at 1 mg/kg, iv administered as single dose; format: ADME, organism-based; settings: in vivo
Mus musculus [20] = test: Up regulation of cleaved PARP protein expression in mouse xenografted with human MIAPaCa2 cells at 1 mg/kg, iv administered twice per week for 28 days measured on day 28 by Western blot analysis; format: functional, organism-based; settings: time 28.0 day
[21] = AUC (infinity) in mouse xenografted with human MIAPaCa2 cells at 0.96 mg/kg, iv administered as single dose; format: ADME, organism-based; design: time infinity, route intravenous, dose 0.96 mg/kg; settings: in vivo
MIA PaCa-2 [22] = test: Antitumor activity against human MIAPaCa2 cells xenografted in mouse assessed as change in tumor volume at 1 mg/kg, iv administered once per week for 28 days and measured at day 53 by Caliper method relative to control; format: functional; settings: time 28 day
MIA PaCa-2 [23] = test: Downregulation of axon guidance related gene expression in human MIAPaCa2 cells at 40 nM after 24 hrs by RNA sequencing analysis; format: functional, cell-based
MIA PaCa-2 [24] = test: Antitumor activity against human MIAPaCa2 cells xenografted in mouse assessed as mean tumor volume at 1 mg/kg, iv administered twice per week for 28 days and measured at day 28 by Caliper method (reference value: 0.45 +/- 0.18 cm3); format: functional; settings: time 28 day
[25] = Apparent volume of distribution in mouse xenografted with human MIAPaCa2 cells at 0.96 mg/kg, iv administered as single dose; format: ADME, organism-based; settings: in vivo, read-out: Vz
[26] = Toxicity in mouse xenografted with human MIAPaCa2 cells assessed as effect on neuronal clinical signs at 1 mg/kg, iv administered once per week for 28 days; format: organism-based; settings: in vivo, 672 h, time 28 day

## O=C1c2cc(-c3ccc(CN4CCCC4)cc3)c3c4c(cc(NCCN5CCCC5)c(c24)C(=O)N1CCCN1CCOCC1)C(=O)N(CCCN1CCOCC1)C3=O [QN-302]
[1]
  log2FC: 1.88
[2]
  Activity: Non-Toxic
[3]
  log2FC: 1.72
MIA PaCa-2 [4]
  inhibition: Active
[5]
  Vd: 1.2 L/kg
CAPAN-1
  Ratio IC50: 5
MIA PaCa-2 [6]
  Activity: -86.6%
Quadruplex DNA
  Activity: inactive
MIA PaCa-2 [7]
  GI50: 1.3 nM
MIA PaCa-2 [8]
  inhibition: Active
BXPC-3
  GI50: 2.6 nM
[9]
  log2FC: 2.25
MIA PaCa-2 [10]
  Activity: -90.6%
[11]
  log2FC: 1.48
MIA PaCa-2 [12]
  Activity: -82.2%
[13]
  log2FC: 1.06
[14]
  log2FC: 0.77
[15]
  half-life: 2220 min
[16]
  log2FC: 1.84
Mus musculus [17]
  Activity: Active
Mus musculus [18]
  Activity: inactive
[19]
  half-life: 2160 min
Mus musculus [20]
  Activity: Active
[21]
  AUC(0-inf): 8270 ng·h/mL
MIA PaCa-2 [22]
  Activity: -89.83%
MIA PaCa-2 [23]
  inhibition: Active
MIA PaCa-2 [24]
  Activity: 0.06 cm3
[25]
  Vd: 6.9 L/kg
[26]
  Activity: Non-Toxic
